Results from US10130598B2, “Methods and compositions for administration of 3-halopyruvate and related compounds for the treatment of cancer” (The Johns Hopkins University, priority 2008, dated 2018).

Columns and labels:
HepG2 cells = assay: ATP dependent luminescence cell viability assay, HepG2; format: cell-based
Excerpt: (§1) The non-small cell lung cancer (NSCLC) cell line NCI-H1299, the breast cancer cell lines MCF7 and MDA MB 231 and the Hep3B, Hep2G and SK-Hep1 cells were obtained from the American Type Culture Collection (ATCC) (Manassas, Va., USA) and maintained as a monolayer culture in Eagle's minimum essential medium (MEM, Invitrogen, Gaithersburg, Md., USA) supplemented with 10% fetal bovine serum at 37 C and 5% CO2. All treatments were done in triplicate samples on 96-well plates. VX2 cells were maintained as described in Geschwind et al., Cancer Res., 62:3909-3913 (2002).
(§2) Cytotoxicity of 3-BrPA was evaluated by the IC50 values, representing the drug concentration which depletes ATP by 50% compared to non-treated control. On day 1, cells were seeded into 96-well plates in a volume of 100 μl per well. On day 2, the medium of all wells was removed and an aliquot of 100 μl of media having serial dilutions of 3-BrPA in PBS, NaHCO3, NaOH, KOH and KHCO3 was added to the appropriate well. […] Briefly, 100 μl assay reagent was added to each well and mixed at room temperature for 2 min to develop luminescent signal. The luminescence intensity (cps) from each sample was determined with a spectrometer (Model Victor III, Perkin Elmer, Mass.). […]
(§3) The effects on cell viability and cellular metabolism of 3-BrPA on Hep3B and VX2 cells were examined using luminescence ATP assays, as described above. […]

Hep3B cells = assay: ATP dependent luminescence cell viability assay, Hep3B; format: cell-based
Excerpt: as §1, §2, §3

MCF7 cells = assay: Luminescence ATP assay, MCF7; format: cell-based
Experimental: Cytotoxicity of 3-BrPA was evaluated by the IC50 values, representing the drug concentration which depletes ATP by 50% compared to non-treated control. On day 1, cells were seeded into 96-well plates in a volume of 100 μl per well. On day 2, the medium of all wells was removed and an aliquot of 100 μl of media having serial dilutions of 3-BrPA in PBS, NaHCO3, NaOH, KOH and KHCO3 was added to the appropriate well. After 24 h of drug exposure cytotoxic effects of 3-BrPA were monitored by cellular ATP level using CellTiter-Glo™ assay reagents from Promega Corp (Madison, Wis.). Briefly, 100 μl assay reagent was added to each well and mixed at room temperature for 2 min to develop luminescent signal. The luminescence intensity (cps) from each sample was determined with a spectrometer (Model Victor III, Perkin Elmer, Mass.). Relative luminescence was calculated in proportion to the numbers of living cells per sample well. The results are expressed as the mean of three independent experiments. The intracellular ATP contents were calculated and normalized by equal cell number and expressed as the percentage of the control cells. The IC50 values were estimated graphically from dose-response plots.
The anti-metabolic effect of 3-BrPA on MCF7 and MDA MB231 cells was examined using luminescence ATP assays, as described above. […]

genomic DNA = assay: 14C-3-BrPA incorporation into genomic DNA (scintillation counting); format: cell-based; conditions: SK-Hep and Hep3B cells exposed to 14C-3-BrPA
Experimental: Many antineoplastic chemotherapeutics are alkylating agents that exert their effect by binding to DNA and interfering with cell replication. […] Since 3-BrPA has been reported to be an alkylating agent, it was determined whether 3-BrPA is incorporated into the DNA of 3-BrPA treated cells. To accomplish this, genomic DNA was isolated from SK-Hep and Hep3B cells that had been exposed to ^14C-3-BrPA.

[1] = system: tumors implanted in rabbit livers; conditions: cited from earlier work
[2] = at 48 hours, read-out: IC50 (ATP depletion)

For `O=C(O)C(=O)CBr` [3-BrPA, 3-bromopyruvate], the “Level of ATP” value (HepG2 cells; 3, 24, 48 hours) was “dose and time dependent decrease”, the IC50 (HepG2 cells; [2]) was 125 µM and the “Level of ATP” value (Hep3B cells; 3, 24, 48 hours) was “dose and time dependent decrease”. For the same compound, the IC50 (Hep3B cells; [2]) was 125 µM, the “ATP level (bioluminescent quantification)” value (MCF7 cells) was “dose and time dependent energy (ATP) depletion” and the “14C incorporation into genomic DNA” value (genomic DNA) was “no evidence of ^14C incorporation”. The Tumor eradication ([1]; administered directly into the liver by intra-arterial injection) was “completely eradicate tumors”, the Therapeutic dose ([1]; in 25 ml of PBS, continuous 1 hour intra-arterial infusion) was 1.75 mM and the “Biodistribution: tumor uptake” value ([1]; intra-arterially delivered) was “high tumor uptake”. The “Effects on healthy tissue” value ([1]; intra-arterially delivered) was “no negative effects on healthy tissue”.
